Experimental data as given in US10196357B2, “Biaryl compositions and methods for modulating a kinase cascade” (Athenex, Inc., priority 2007, dated 2019).

Experiments:
HepG2-2.2.15 cells = test: cytotoxicity in HBV primary assay (MTS); format: cell-based; details: Test Concentration 10 μM
Experimental: (§1) The antiviral activity of each test compound was calculated by comparing its HBV DNA copies against that of the untreated control cells (100%) to derive percent inhibition level. After removing the supernatant, the remaining cells were subject to CellTiter 96 Aqueous One (Promega, Madison, Wis.) solution cell proliferation assay (MTS-based) to measure cell viability. Cytotoxicity of the compound was determined by comparing its cell viability with that of the untreated cell control to derive percentage of the cell control.

[1] = system: wild-type aywl strain of HBV; test: HBV primary assay (HepG2-2.2.15 antiviral assay); format: cell-based; details: Test Concentration 10 μM
Experimental: The HBV primary assay developed was conducted similarly to that described by Korba et al., (Antiviral Res. 15: 217-228 (1991) and Antiviral Res. 19: 55-70 (1992)) with the exception that viral DNA detection and quantification have been improved and simplified (Korba et al., Antiviral Res. 19: 55-70 (1992)).
Compound 38 (KX2-377), Compound 136 (KX2-393), and Compound 137 (KX2-394) were evaluated for potential anti-HBV activity using a single high-test concentration of compounds in the standardized HepG2-2.2.15 antiviral assay. The HepG2-2.2.15 is a stable cell line producing high levels of the wild-type aywl strain of HBV. Briefly, HepG2-2.2.15 cells were plated in 96-well plates. Only the interior wells were utilized to reduce “edge effects” observed during cell culture; the exterior wells are filled with complete medium to help minimize sample evaporation. On the following day, the confluent monolayer of HepG2-2.2.15 cells was washed and the medium is replaced with complete medium containing test concentrations of a test article in triplicate. 3TC was used as the positive control, while media alone was added to cells as the untreated control. Three days later the culture medium was replaced with fresh medium containing the appropriately diluted drug. Six days following the initial administration of the test compound, the cell culture supernatant was collected, treated with pronase and DNAse and then used in a real-time quantitative TaqMan PCR assay for direct measurement of HBV DNA copies using an ABI Prism 7900 sequence detection system (Applied Biosystems, Foster City, Calif.).
as §1

Cl.Cl.O=C(Cc1ccc(-c2ccc(OCCN3CCOCC3)cc2)cn1)NCc1ccccc1 [KXO1:2HCl]
Cytotoxicity Percent of cell control (HepG2-2.2.15 cells): 51.3% | Antiviral Activity Percent inhibition of cell control [1]: 48.2% | Interpretation [1]: Cytotoxic
